Four molecules from patent US20200093932A1, “TREATMENT OF CANCER” (BlueLink Pharmaceuticals, Inc., priority 2016, published 2020) can be followed below.

Common to all, as to format: in vivo
Test [1] has as its system B16.F10 mouse melanoma tumor model. Nature of the test: Example 2: CRLX101 with INCB-024360, tumor growth inhibition and delay. As to the method:
On Day 1, B16.F10 cells, passage 5, were suspended in DMEM (Dulbecco's Modified Eagle Medium) and implanted subcutaneously (SC) in mice. When the mean tumor volume reached 60 mm^3, the mice were randomized into study groups and given one of the following treatments: • a control vehicle (20% DMSO/7.5% propylene glycol/5% Tween 80/67.5% PBS) administered IP bid for 13 days, from Day 5 to Day 17, with a dose volume of 10 mL/kg • CRLX101 administered IV at 6 mg/kg q7dx2, i.e. on Day 5 and Day 12 at a dose volume of 10 mL/kg as monotherapy and in combination • INCB-024360 (lot #01, SelleckChem, Houston, Tex.) 10 mg/mL in 20% DMSO/[…]/5% Tween 80/67.5% PBS. The dose was 100 mg/kg administered PO twice every day with a dose volume of 10 mL/kg for 13 days, from Day 5 to […] post tumor implantation as a monotherapy and in combination with CRLX101
(§1) Tumor volumes were measured 3 times every week using the equation (width*width*length)/2, in mm^3. Tumor growth inhibition (TGI) was determined by comparing the mean tumor volume of the treated group with the mean tumor volume of the control group, as the decrease in tumor volume of the treated group as a percent of total tumor volume of the control group. The equation to calculate TGI is (1-(treated volume/control volume))*100.
(§2) Tumor growth delay (TGD) was determined as the number of days between when the control group reached the tumor volume endpoint and when the treated group reached the tumor volume endpoint.

Test [2] shares this test system. Nature of the test: Example 3: CRLX101 with Indoximod, tumor growth inhibition and delay. As to the method:
On Day 1, B16.F10 cells, passage 2, were suspended in DMEM (Dulbecco's Modified Eagle Medium) and implanted subcutaneously (SC) in mice. When the mean tumor volume reached 69 mm^3, the mice were randomized into study groups and given one of the following treatments: • a control vehicle (drinking water with the sweetening agent Equal™ added (2 g/L)) was included in the study from Day 7 to Day 19 post tumor implantation. • CRLX101 administered IV at 6 mg/kg q7dx2, i.e. on Day 7 and Day 14 at a dose volume of 10 mL/kg as monotherapy and in combination. • Indoximod (lot # MKBQ8091V, Sigma-Aldrich) was administered in the drinking water at a concentration of 2 mg/mL from Day 7 to Day 19 post tumor implantation as a monotherapy and in combination with CRLX101. The water had Equal™ added (2 g/L).
Tumor volumes were measured 3 times every week using the equation (width*width*length)/2, in mm^3. The endpoint for tumor volume was 2000 mm^3. Tumor growth inhibition (TGI) was determined by comparing the mean tumor volume of the treated group with the mean tumor volume of the control group, as the decrease in tumor volume of the treated group as a percent of total tumor volume of the control group. […]
as §2

Test [3] has the same test system. Nature of the test: Example 4: CRLX101 + NLG-919 analog versus Irinotecan + NLG-919 analog, tumor growth inhibition and delay. Conditions: for Inhibit tumor growth?: B16.F10 SC tumors in mice, CRLX101 6 mg/kg IV q7dx2 (Day 6, 13), NLG-919 analog 12.5 mg/kg IP bid Day 6-19, Irinotecan 100 mg/kg q7dx2 (Day 6, 13); for TGI vs. Control (%): same dosing, relative to vehicle control. As to the method: On Day 1, B16.F10 cells, passage 3, were suspended in DMEM (Dulbecco's Modified Eagle Medium) and implanted subcutaneously (SC) in mice. […] The dose was 100 mg/kg q7dx2, i.e., administered at a dose volume of 10 mL/kg on Day 6 and Day 13 post tumor implantation as a monotherapy and in combination.
as §1, §2

Test [4] has the same test system. Nature of the test: Example 1: CRLX101 with NLG-919 analog or INCB-024360 analog, tumor growth inhibition and delay. As to the method: On Day 1, B16.F10 cells, passage 3, were suspended in DMEM (Dulbecco's Modified Eagle Medium) and implanted subcutaneously (SC) in mice. […] The dose was 100 mg/kg administered PO twice every day with a dose volume of 10 mL/kg for 14 days, from Day 7 to Day 20 post tumor implantation as a monotherapy and in combination with CRLX101
as §1, §2

For test [5] the test system is unchanged. Nature of the test: Example 5: CRLX101 + NLG-919 analog versus anti-PD-1 antibody + NLG-919 analog, tumor growth inhibition and delay. As to the method: On Day 1, B16.F10 cells, passage 3, were suspended in DMEM (Dulbecco's Modified Eagle Medium) and implanted subcutaneously (SC) in mice.
Tumor volumes were measured 3 times every week using the equation (width*width*length)/2, in mm^3. Tumor growth inhibition (TGI) was determined by comparing the mean tumor volume of the treated group with the mean tumor volume of the control group, as the decrease in tumor volume of the treated group as a percent of total tumor volume of the control group. The equation to calculate TGI is (1−(treated volume/control volume))*100.
as §2

[6] abbreviates: same dosing, vs vehicle when the control group reached the tumor volume endpoint.

On to `NS(=O)(=O)NCCNc1nonc1/C(=N/O)Nc1ccc(F)c(Br)c1` [INCB-024360], for which, in test [1] (B16.F10 SC tumors in mice, CRLX101 6 mg/kg IV q7dx2 (Day 5, 12), INCB-024360 100 mg/kg PO bid Day 5-18), the “Inhibit tumor growth?” value is “did not inhibit tumor growth and No”. For the same molecule, in test [1] (same dosing, days between control and treated group reaching the tumor volume endpoint), the “TGD (Day)” value is “no TGD”. Moreover, the “TGI vs. Control (%)” value in test [1] (setting [6]) was 20%.

As to `Cn1cc(C[C@@H](N)C(=O)O)c2ccccc21` [Indoximod], the “Inhibit tumor growth?” value in test [2] (B16.F10 SC tumors in mice, CRLX101 6 mg/kg IV q7dx2 (Day 7, 14), Indoximod 2 mg/mL in drinking water Day 7-19) was “did not inhibit tumor growth and No”. The “TGI vs. Control (%)” value in test [2] (same dosing, vs vehicle when the control group reached the tumor volume endpoint (2000 mm^3)) is listed as −49%.

On to `CCc1c2c(nc3ccc(OC(=O)N4CCC(N5CCCCC5)CC4)cc13)-c1cc3c(c(=O)n1C2)COC(=O)[C@]3(O)CC` [Irinotecan], for which, in test [3], the “Inhibit tumor growth?” value is given as “No” and the “TGI vs. Control (%)” value is on record as −12%.

Turning to `OC(CC1c2ccccc2-c2cncn21)C1CCCCC1` (stereo not shown) [NLG-919 analog], the “Inhibit tumor growth?” value in test [4] (B16.F10 SC tumors in mice, CRLX101 6 mg/kg IV q7dx2 (Day 7, 14), NLG-919 analog 12.5 mg/kg IP bid Day 7-20, INCB-024360 analog 100 mg/kg PO bid Day 7-20) is “No”; in test [3], “did not inhibit tumor growth and No”; in test [5] (B16.F10 SC tumors in mice, CRLX101 6 mg/kg IV q7dx2 (Day 6, 13), NLG-919 analog 12.5 mg/kg IP bid Day 6-19, anti-mouse PD-1 antibody 200 μg per mouse IP Day 6, 9, 13, 16) it was “did not inhibit tumor growth and No”. The “TGI vs. Control (%)” value in test [4] (same dosing, mean tumor volume vs vehicle when the control group reached the tumor volume endpoint) turned out to be 23%; in test [3] it was 5%; in test [5] (setting [6]), 15%.
